Results taken from patent US5428139A, “Bicyclopolyazamacrocyclophosphonic acid complexes for use as radiopharmaceuticals” (The Dow Chemical Company, priority 1991, dated 1995).

Assays:
[1] = Biodistribution: percent of injected dose in tissues; assay type: in vivo, Sprague Dawley rats; conditions: for % injected dose in bone: 100 μl complex i.v. via tail vein, bone estimated as femur x 25; for % injected dose in blood: blood assumed 7% of body weight; for % injected dose in muscle: muscle assumed 43% of body weight
Experimental: Sprague Dawley rats were allowed to acclimate for five days then injected with 100 μl of the complex solution via a tail vein. The rats weighed between 150 and 200 g at the time of injection. After 30 min. the rats were killed by cervical dislocation and dissected. The amount of radioactivity in each tissue was determined by counting in a NaI scintillation counter coupled to a multichannel analyzer. The counts were compared to the counts in 100 μl standards in order to determine the percentage of the dose in each tissue or organ.
The percent dose in blood was estimated assuming blood to be 7% of the body weight. The percent dose in bone was estimated by multiplying the percent dose in the femur by 25. The percent dose in muscle was estimated assuming muscle to be 43% of the body weight.

[2] = Percent metal as a complex (Sephadex column, ion exchange method); assay type: physicochemical; conditions: 1:1 ligand/metal, eluted with 4:1 saline (0.85% NaCl/NH4 OH)
Experimental: A stock ^153 SmCl3 solution was prepared by adding 2 μL of 3×10^-4 M ^153 SmCl3 in 0.1N HCl to 2 mL of a 3×10^-4 M SmCl3 carrier solution. Appropriate ligand solutions were then prepared in deionized water. The 1:1 ligand/metal complexes were then prepared by combining the ligands (dissolved in 100-500 μL of deionized water) with 2 mL of the stock ^153 SmCl3 solution, followed by through mixing to give an acidic solution (pH=2). The pH of the solution was then raised to 7.0 using 0.1N NaOH. The percent metal as a complex was then determined by passing a sample of the complex solution through a Sephadex™ G-50 column, eluting with 4:1 saline ([…]) and collecting 2×3 mL fractions. The amount of radioactivity in the combined elutions was then compared with that left on the resin (non-complexed metal is retained on the resin). […]
A solution of the ligand of Example 1 was prepared by dissolving 3.8 mg of ligand/0.517 mL of deionized water (pH=2). […] After thorough mixing, the percent metal as a complex was determined by passing a sample of the complex solution through a Sephadex™ column, eluting with 4:1 saline (0.85% NaCl/NH4 OH), and collecting 2×3 mL fractions. The amount of radioactivity in the combined elutions was then compared with that left on the resin. […] By this method complexation was determined to be 98%. […] The pH stability was then determined using the General Procedure above.

[3] = patients with metastatic bone lesions; cited from earlier work
[4] = Sprague Dawley rats, 30 min, average
[5] = Sprague Dawley rats, tail vein, 30 min, average
[6] = rats, 30 min, % dose/G printed for bone to blood ratio

Row | Compound | bone localization ([1]; 5:1 ligand to metal ratio) | % injected dose in bone [1, 4] [%] | % injected dose in kidney [1, 5] [%] | % injected dose in liver [1, 5] [%] | % injected dose in spleen [1, 5] [%] | % injected dose in blood [1, 5] [%] | % injected dose in muscle [1, 5] [%] | percent metal as a complex (complexation) [2] [%] | bone to blood ratio ([1]; % dose/G, rats, 30 min) | bone to liver ratio [1, 6] | bone to muscle ratio [1, 6] | blood levels [3] | lesion to normal bone ratios [3]
1 | O=P(O)(O)CN1CCN(CP(=O)(O)O)Cc2cccc(n2)CN(CP(=O)(O)O)CC1.[153Sm] [^153 Sm-PCTMP, complex of ^153 Sm-3,6,9,15-tetraazabicyclo[9.3.1]pentadeca-1(15),11,13-triene-3,6,9-trimethylenephosphonic acid] | about 60% | 60 | 0.38 | 2.80 | 0.16 | 0.29 | 0.40 | 98 | – | – | – | – | –
2 | O=P(O)(O)CN1CCN(CP(=O)(O)O)Cc2cccc(n2)CN(CP(=O)(O)O)CC1.[90Y] [^90 Y-PCTMP, complex of ^90 Y-3,6,9,15-tetraazabicyclo[9.3.1]pentadeca-1(15),11,13-triene-3,6,9-trimethylenephosphonic acid] | – | 29 | 0.36 | 0.21 | – | 0.18 | 0.42 | – | 140 | 76 | 400 | – | –
3 | O=P(O)(O)CN1CCN(CP(=O)(O)O)Cc2cccc(n2)CN(CP(=O)(O)O)CC1.[166Ho] [^166 Ho-PCTMP, complex of ^166 Ho-3,6,9,15-tetraazabicyclo[9.3.1]pentadeca-1(15),11,13-triene-3,6,9-trimethylenephosphonic acid] | – | 43 | 0.33 | 3.55 | – | 0.12 | 0.34 | – | – | – | – | – | –
4 | Strontium-89 | – | – | – | – | – | – | – | – | – | – | – | high | low
